pIC50: −log10 of the molar value.
Molecular target: T1, Aurora A (Homo sapiens, UniProt O14965)
T1 construct: C-terminally Histidine4 (His4)-tagged Aurora A full-length protein; His4 (C)
T1 sequence (O14965 1-403): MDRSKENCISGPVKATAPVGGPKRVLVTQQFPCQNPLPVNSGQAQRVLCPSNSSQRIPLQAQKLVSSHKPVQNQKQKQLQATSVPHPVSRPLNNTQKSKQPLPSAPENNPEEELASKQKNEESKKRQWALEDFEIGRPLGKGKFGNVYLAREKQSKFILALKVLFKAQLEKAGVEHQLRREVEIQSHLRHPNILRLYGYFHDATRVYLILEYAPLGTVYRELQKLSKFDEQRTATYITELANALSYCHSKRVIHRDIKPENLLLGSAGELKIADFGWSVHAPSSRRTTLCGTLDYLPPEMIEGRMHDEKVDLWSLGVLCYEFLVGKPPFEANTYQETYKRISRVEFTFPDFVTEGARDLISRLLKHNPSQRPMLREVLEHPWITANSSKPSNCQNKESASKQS
Assay: IC50 determination for inhibitors of Aurora A (96 MTP-ELISA)
Assay type: biochemical
Conditions: His4-tagged full-length Aurora A 250 ng/ml, PKB-GSK2 200 nM, ATP 4 μM, 90 min room temperature, read-out: IC50 Aurora A kinase inhibition
Experimental: Aurora A is a serine threonine kinase involved in spindle assembly and chromosome segregation. The assay is a typically ELISA-type assay where biotinylated substrate (PKB-GSK2) is phosphorylated. Phosphorylation is detected by peroxidase (POD) labelled polyclonal antibody (PAK<M-Ig>S-IgG-POD) and phosphopeptide monoclonal antibody (Mab) (MAK<P-GSK>M-27E5-IgG). The assay is validated for IC50-determination.
Assay plates: 96-well polystyrene plates, streptavidin-coated,
Samples: 10 mM in dimethylsulfoxide (DMSO)
Aurora A-His-4: C-terminally Histidine4 (His4)-tagged Aurora A full-length protein, stock solution 0.7 mg/ml, final conc.: 250 ng/ml
PKB-GSK2: biotinylated peptide derived from human GSK3-alpha sequence (Biotin-SGRARTSSFAEPGG-CONH2), stock solution 600 μM, final conc.: 200 nM
PAK<M-Ig>S-IgG-POD: Anti-mouse IgG, horse radish peroxidase(HRP)-linked Antibody, diluted in 3% BSA/PBS-T (1:10000), (Cell Signaling, Cat. No.: 7076)
MAK<P-GSK>M-27E5-IgG: Phospho-GSK-3-alpha (Ser 21) (27E5) Monoclonal Antibody, stock solution 1.85 mg/ml, diluted in 3% BSA/PBS-T (1:6000), final conc.: 0.31 μg/ml, (Cell Signaling, Cat. No.: 9337B)
ATP: Adenosine-5′-triphosphate 1 mM, diluted in kinase buffer, (Roche Diagnostics GmbH, Cat. No.: 127531-001,), final conc.: 4 μM
TRIS: 2-Amino-2-hydroxymethyl-1,3-propoanediol (“tris-(hydroxymethyl)-aminomethane”) (MERCK, Cat. No.: 108382.2500)
BSA: Bovine Serum Albumin Fraction V, fatty acid free (Roche Diagnostics GmbH, Cat. No. 9100221)
EDTA Titriplex III (di-Sodium-EDTA di-Hydrate), 120 mM, (MERCK, Cat. No.: 1.08418.1000)
ABTS buffer: ABTS (2,2′-azino-bis(3-ethylbenzthiazoline-6-sulfonic acid)) 16.7 mg/ml (Roche Diagnostics GmbH, Cat. No.: 1204530) • ABTS tablets: dissolve one ABTS tablet in 50 ml of working solution (ABTS buffer) (Roche Diagnostics GmbH, Cat. No.: 1112422 ) • Tween 20: Polysorbat 20 (Roche Diagnostics GmbH, Cat. No.: 10006394-001) • DTT: 1,4-Dithiothreitol (Roche Diagnostics GmbH, Cat. No.: 197777) • MgCl2×6H2O MERCK, Cat. No.: 105833.1000 • Kinase buffer: 50 mM TRIS, 10 mM MgCl2, 1 mM DTT, 0.1% Tween 20, pH 7.8 PBS-T (=Wash buffer) (PBS-T)10 g/l PBS(Phosphate buffered saline) with 0.033% Tween 20 • 3% BSA/PBS-T: 3% BSA dissolved in PBS-T Method
This assay is performed in 96-well format for IC50 determination with 5 samples (each with 8 concentrations by twofold testing), 100 μl incubation volume and the following plate layout:
S samples, with ATP, 1% DMSO, final conc.: a=100 μM, b=20 μM, c=4 μM, d=0.8 μM, e=0.16 μM, f=0.032 μM, g=0.0064 μM, h=0.00128 μM Step/Action • (1) Sample preparation: add 24 μl per well samples (descending sequence) diluted in kinase buffer to assay plate (final conc. for DMSO 1%). • 2. Add directly 16 μl Aurora-A-his-4 diluted in kinase buffer to assay plate. • 3. Add directly 40 μl per well PKB-GSK2/ATP mixture to assay plate, (final conc.: Aurora A=250 ng/ml, GSK2=200 nM, ATP=4 μM). Negative control: without ATP. • 4. Incubate assay plate for exactly 90 min at room temperature. • 5. Stop reaction by adding 20 μl EDTA in all wells. • 6. Wash assay plate 3× with 200 μl washing buffer per well. • 7. Add 100 μl MAK<P-GSK>M27E5-IgG (1:10000) and PAK<M-Ig>S-IgG-POD (1:6000) dissolved in 3% BSA/PBS-T to assay plate per well. • 8. Incubate assay plate for 60 min at room temperature. • 9. Wash assay plate 3× with 200 μl washing buffer per well • 10. Add 100 μl ABTS solution to assay plate per well, incubate for approx. 4 min at RT on MTP shaker. • 11. Measure absorption at 405/492 nm. • 12. Calculate % inhibition as: (1−(Esample−ENC)/(EPC−ENC))×100 1)
13. Calculate IC50 using a non-linear curve fit (XLfit software (ID Business Solution Ltd., Guilford, Surrey, UK))

Row | Structure (SMILES) | pIC50
1 | CC1(C)C(=O)N(CCN)c2cc3[nH]c(-c4n[nH]c5ccccc45)nc3cc21 [Example 52, 5-(2-Amino-ethyl)-2-(1H-indazol-3-yl)-7,7-dimethyl-5,7-dihydro-3H-imidazo[4,5-f]indol-6-one] | 7.00 to 9.00
2 | CC1(C)C(=O)N(CCCN2CCOCC2)c2cc3[nH]c(-c4n[nH]c5ccccc45)nc3cc21 [Example 7, 2-(1H-indazol-3-yl)-7,7-dimethyl-5-(3-morpholin-4-yl-propyl)-5,7-dihydro-3H-imidazo[4,5-f]indol-6-one] | 7.85
3 | CC1(C)C(=O)N(Cc2ccc(S(C)(=O)=O)cc2)c2cc3[nH]c(-c4n[nH]c5ccccc45)nc3cc21 [Example 27, 2-(1H-Indazol-3-yl)-5-(4-methanesulfonyl-benzyl)-7,7-dimethyl-5,7-dihydro-3H-imidazol[4,5-f]indol-6-one] | 7.00 to 9.00
4 | C=CCN1C(=O)C(C)(C)c2cc3nc(-c4n[nH]c5ccccc45)[nH]c3cc21 [Example 2, 5-Allyl-2-(1H-indazol-3-yl)-7,7-dimethyl-5,7-dihydro-3H-imidazo[4,5-f]indol-6-one] | 7.00 to 9.00
5 | CC1(C)C(=O)N(CC(=O)N2CCOCC2)c2cc3[nH]c(-c4n[nH]c5ccccc45)nc3cc21 [Example 40, 2-(1H-Indazol-3-yl)-7,7-dimethyl-5-(2-morpholin-4-yl-2-oxo-ethyl)-5,7-dihydro-3H-imidazo[4,5-f]indol-6-one] | 7.00 to 9.00
6 | CC1(C)C(=O)N(Cc2ccccc2)c2cc3[nH]c(-c4n[nH]c5ccccc45)nc3cc21 [Example 26, 5-Benzyl-2-(1H-indazol-3-yl)-7,7-dimethyl-5,7-dihydro-3H-imidazo[4,5-f]indol-6-one] | 6.60 to 7.00
7 | CCN1C(=O)C(C)(C)c2cc3nc(-c4n[nH]c5ccccc45)[nH]c3cc21 [Example 3, 5-Ethyl-2-(1H-indazol-3-yl)-7,7-dimethyl-5,7-dihydro-3H-imidazo[4,5-f]indol-6-one] | 7.00 to 9.00
8 | CC1(C)C(=O)N(CC(N)=O)c2cc3[nH]c(-c4n[nH]c5ccccc45)nc3cc21 [Example 37, 2-[2-(1H-Indazol-3-yl)-7,7-dimethyl-6-oxo-6,7-dihydro-3H-imidazo[4,5-f]indol-5-yl]-acetamide] | 7.00 to 9.00
9 | CC1(C)C(=O)N(CCO)c2cc3[nH]c(-c4n[nH]c5ccccc45)nc3cc21 [Example 34, 5-(2-Hydroxy-ethyl)-2-(1H-indazol-3-yl)-7,7-dimethyl-5,7-dihydro-3H-imidazo[4,5-f]indol-6-one] | 7.00 to 9.00
10 | CC1(C)C(=O)N(CC#N)c2cc3[nH]c(-c4n[nH]c5ccccc45)nc3cc21 [Example 24, [2-(1H-Indazol-3-yl)-7,7-dimethyl-6-oxo-6,7-dihydro-3H-imidazo[4,5-f]indol-5-yl]-acetonitrile] | 7.00 to 9.00
11 | CC1(C)C(=O)N(CC(=O)NCc2ccccc2)c2cc3[nH]c(-c4n[nH]c5ccccc45)nc3cc21 [Example 39, N-Benzyl-2-[2-(1H-indazol-3-yl)-7,7-dimethyl-6-oxo-6,7-dihydro-3H-imidazo[4,5-f]indol-5-yl]-acetamide] | 7.00 to 9.00
12 | CCC1C(=O)Nc2cc3nc(-c4[nH]nc5ccccc45)[nH]c3cc21 (centres unmarked) [Example 13, 7-Ethyl-2-(1H-indazol-3-yl)-5,7-dihydro-3H-imidazo[4,5-f]indol-6-one] | 6.60 to 7.00
13 | CC1(C)C(=O)N(CC(O)CO)c2cc3[nH]c(-c4n[nH]c5ccccc45)nc3cc21 (centres unmarked) [Example 35, 5-(2,3-Dihydroxy-propyl)-2-(1H-indazol-3-yl)-7,7-dimethyl-5,7-dihydro-3H-imidazo [4,5-f]indol-6-one] | 7.00 to 9.00
14 | CC(C)N1C(=O)C(C)(C)c2cc3nc(-c4n[nH]c5ccccc45)[nH]c3cc21 [Example 6, 2-(1H-indazol-3-yl)-5-isopropyl-7,7-dimethyl-5,7-dihydro-3H-imidazo[4,5-f]indol-6-one] | 7.55
15 | CC1(C)C(=O)N(CC(=O)Nc2ccccc2)c2cc3[nH]c(-c4n[nH]c5ccccc45)nc3cc21 [Example 43, 2-[2-(1H-Indazol-3-yl)-7,7-dimethyl-6-oxo-6,7-dihydro-3H-imidazo[4,5-f]indol-5-yl]-N-phenyl-acetamide] | 7.00 to 9.00
16 | CC1(C)C(=O)N(CCCN2CCCCC2)c2cc3[nH]c(-c4n[nH]c5ccccc45)nc3cc21 [Example 19, 2-(1H-Indazol-3-yl)-7,7-dimethyl-5-(3-piperidin-1-yl-propyl)-5,7-dihydro-3H-imidazo[4,5-f]indol-6-one] | 7.00 to 9.00
17 | COCCOCCN1C(=O)C(C)(C)c2cc3nc(-c4n[nH]c5ccccc45)[nH]c3cc21 [Example 17, 2-(1H-Indazol-3-yl)-5-[2-(2-methoxy-ethoxy)-ethyl]-7,7-dimethyl-5,7-dihydro-3H-imidazo[4,5-f]indol-6-one] | 7.00 to 9.00
18 | CN(C)CCCN1C(=O)C(C)(C)c2cc3nc(-c4n[nH]c5ccccc45)[nH]c3cc21 [Example 21, 5-(3-Dimethylamino-propyl)-2-(1H-indazol-3-yl)-7,7-dimethyl-5,7-dihydro-3H-imidazo[4,5-f]indol-6-one] | 7.00 to 9.00
19 | C=CCCN1C(=O)C(C)(C)c2cc3nc(-c4n[nH]c5ccccc45)[nH]c3cc21 [Example 15, 5-But-3-enyl-2-(1H-indazol-3-yl)-7,7-dimethyl-5,7-dihydro-3H-imidazo[4,5-f]indol-6-one] | 7.00 to 9.00
20 | CC1C(=O)Nc2cc3[nH]c(-c4n[nH]c5ccccc45)nc3cc21 (centres unmarked) [Example 11, 2-(1H-Indazol-3-yl)-7-methyl-5,7-dihydro-3H-imidazo[4,5-f]indol-6-one] | 6.60 to 7.00
21 | CC1(C)C(=O)Nc2cc3[nH]c(-c4n[nH]c5ccccc45)nc3cc21 [Example 8, 2-(1H-indazol-3-yl)-7,7-dimethyl-5,7-dihydro-3H-imidazo[4,5-f]indol-6-one] | 7.00 to 9.00
22 | O=C1Nc2cc3nc(-c4n[nH]c5ccccc45)[nH]c3cc2C12CCCC2 [Example 9, 2-(1H-indazol-3-yl)-spiro[7,7-cyclopentan-5,7-dihydro-3H-imidazo[4,5-f]indol]-6-one] | 6.60 to 7.00
23 | CC1(C)C(=O)N(CC(=O)NO)c2cc3[nH]c(-c4n[nH]c5ccccc45)nc3cc21 [Example 49, N-Hydroxy-2-[2-(1H-indazol-3-yl)-7,7-dimethyl-6-oxo-6,7-dihydro-3H-imidazo[4,5-f]indol-5-yl]-acetamide] | 7.00 to 9.00

Reference: patent US20060142247A1, “Tricyclic heterocycles” (priority 2004, published 2006)
